From PubChem BioAssay (NCI)
“And” between values parts separate entries of the source, which are not always exact repeats. Equal entries are not always repeated.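 How tested: cells in 96-well plates exposed to compound for 48 hours at five concentrations. At the GI50, growth is halved. TGI: concentration producing complete growth inhibition.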

How the values were obtained:
Assay in all cases: NCI anticancer screen, dose series, 48 h
[1] = test system: CAKI-1 renal
[2] = test system: UACC-62 melanoma
[3] = test system: COLO 205 colon
[4] = test system: SR leukemia
[5] = test system: HT29 colon
[6] = test system: HCC-2998 colon
[7] = test system: SK-MEL-5 melanoma
[8] = test system: SK-MEL-2 melanoma
[9] = test system: MDA-MB-435
[10] = test system: HS 578T breast

| Compound | TGI [1] [µM] | TGI [2] | TGI [3] [µM] | TGI [4] | TGI [5] | TGI [6] | TGI [7] | TGI [8] | GI50 [1] | GI50 [2] | GI50 [3] | GI50 [9] [µM] | TGI [9] [µM] | GI50 [8] [µM] | GI50 [10] | TGI [10] [µM] | GI50 [5] [µM] | GI50 [6] | GI50 [7] [µM] | GI50 [4] [µM] |
| --- | --- | --- | --- | --- | --- | --- | --- | --- | --- | --- | --- | --- | --- | --- | --- | --- | --- | --- | --- | --- |
| O=C(Nc1nc2ccc([N+](=O)[O-])cc2s1)C(=O)C(C(=O)c1ccncc1)C1OC(=O)c2ccccc21 (centres undefined) | > 100 | > 100 µM | > 100 | > 100 µM | > 100 µM | > 100 µM | – | – | – | – | – | – | – | – | – | – | – | – | – | – |
| COc1nc2c(nc(N)n2C2OCC(O)C(O)C2O)c(=O)n1C (centres undefined) | > 100 | > 100 µM | > 100 | > 100 µM | > 100 µM | > 100 µM | > 100 µM | – | – | – | – | – | – | – | – | – | – | – | – | – |
| O=c1cccccc1[O-].O=c1cccccc1[O-].O=c1cccccc1[O-].[Ce+3] | > 100 | 40.4 µM | – | – | > 100 µM | > 100 µM | 38.8 µM | 51.6 µM | – | – | – | – | – | – | – | – | – | – | – | – |
| COc1cc(F)c(/C=C/c2cc(/C=C/c3cc(OC)c(OC)cc3F)n(-c3cc(F)cc(F)c3)n2)cc1OC | 34.4 | 3.32 µM | 26.8 | – | 6.81 µM | 47.9 µM | 9.38 µM | 10.3 µM | 12.8 µM | 1.65 µM | 3.95 µM | 2.03 | 4.63 | 3.08 | 4.04 µM | 18.9 | 2.27 | 6.18 µM | 2.84 | – |
| CC1(C(=O)O)CCOc2ccccc21 (centres undefined) | > 100 | > 100 µM | > 100 | > 100 µM | > 100 µM | > 100 µM | > 100 µM | – | – | – | – | – | – | – | – | – | – | – | – | – |
| CC(=O)[O-].[Zn].c1ccc(/C(=N\Nc2ccccn2)c2ccccn2)cc1 | 6.33 | 0.67 µM and 1.17 µM | – | – | 4.13 µM | 2.07 µM | 1.59 µM | 10.6 µM | – | 0.0476 µM | – | – | – | – | – | – | 1.09 | – | 0.447 | – |
| C=C1CCCC2[C@](C)(CC3=C(O)C(=O)C=C(OC)C3=O)[C@@H](C)CC[C@]12C (some centres undefined) | 27.9 | 6.63 µM | 21.2 | – | 36.1 µM | – | 9.35 µM | 12.5 µM | – | – | – | – | – | – | – | – | – | – | – | – |
| S=c1sc2cscc2s1 | 31.4 | 34 µM | 40.9 | > 100 µM | > 100 µM | 32.8 µM | 70.6 µM | > 100 µM | – | – | – | – | – | – | – | – | – | – | – | – |
| OCC(O)C(O)C(O)c1nn(-c2ccccc2)c2nc3cc(Cl)c(Cl)cc3nc12 (centres undefined) | 56.7 | > 100 µM | > 100 | > 100 µM | 57 µM | 98.4 µM | – | 98 µM | – | – | – | – | – | – | – | – | – | – | – | – |
| CCOc1nccc2c1nc(-c1nonc1N)n2CC | > 25 | > 25 µM | > 25 | – | > 25 µM | > 25 µM | > 25 µM | > 25 µM | > 25 µM | > 25 µM | > 25 µM | > 25 | > 25 | > 25 | > 25 µM | > 25 | > 25 | > 25 µM | > 25 | – |
| COc1ccc(-c2ccc(-c3ccc(C(=N)N)cn3)o2)cc1Cl | 19.8 | – | 3.18 | – | 3.78 µM | 3.38 µM | 2.97 µM | 3.81 µM | 6.57 µM | – | 1.66 µM | 1.74 | 3.33 | 2.12 | 2.08 µM | 6.18 | 1.87 | 1.88 µM | 1.6 | – |
| CC(C)C[C@H](NC(=O)[C@@H](NC(=O)c1cccc(-c2ccccc2)n1)[C@@H](C)O)B(O)O | – | 0.0311 µM and 0.0412 µM | 3.3 | 0.00843 µM and < 0.102 µM | 0.0233 µM and 0.046 µM | 0.0171 µM and 0.0189 µM | 0.0177 µM and < 0.0114 µM | 0.0187 µM and < 0.0195 µM | 0.0146 µM and < 0.0174 µM | 0.00558 µM and < 0.0111 µM | 0.00813 µM and < 0.0126 µM | – | – | 0.00387 | 0.00404 µM and < 0.0107 µM | > 100 | 0.00396 | 0.00517 µM and 0.0116 µM | 0.00421 | 0.00301 |
| Cc1ccc(C2=C(c3ccc(C)cc3)C(c3ccc(C)cc3)=C(c3ccc(C)cc3)C2=O)cc1 | – | – | – | > 100 µM | > 100 µM | – | > 100 µM | > 100 µM | – | – | – | – | – | – | – | – | – | – | – | – |
| O=C(COc1cccc(/C=C2\Oc3ccc4ccccc4c3C2=O)c1)c1ccc(Cl)cc1 | > 100 | > 100 µM | > 100 | – | > 100 µM | > 100 µM | > 100 µM | > 100 µM | > 100 µM | 81.9 µM | 33.6 µM | 51 | > 100 | > 100 | 50 µM | > 100 | > 100 | > 100 µM | 79.2 | – |
| O=C(Nc1ccc(Br)cc1)C(=O)C(C(=O)c1ccccc1F)C1OC(=O)c2ccccc21 (centres undefined) | 94.2 | 28.1 µM | 45.2 | – | > 100 µM | 32.1 µM | 87.1 µM | 68.6 µM | – | – | – | – | – | – | – | – | – | – | – | – |
| CC(C)CC12CC3CCC(CNC1=O)C32C (centres undefined) | > 100 | > 100 µM | > 100 | > 100 µM | > 100 µM | > 100 µM | > 100 µM | > 100 µM | – | – | – | – | – | – | – | – | – | – | – | – |
| CC1CCCc2c1c1ccc3c(O)cccc3c1oc2=O (centres undefined) | > 100 | > 100 µM | > 100 | > 100 µM | > 100 µM | > 100 µM | – | > 100 µM | – | – | – | – | – | – | – | – | – | – | – | – |
| CCN(CC)c1ccc(N=C2C=C(Cl)C(=O)c3ncccc32)c(C)c1 | 12 | 24.7 µM | 15.8 | – | 30.2 µM | – | 11.3 µM | > 100 µM | – | – | – | – | – | – | – | – | – | – | – | – |
| CC(C)C(=O)[O-].CC(C)C(=O)[O-].N.N.N.N.[Co+3].[O-][Cl+3]([O-])([O-])[O-] | – | > 100 µM | > 100 | – | > 100 µM | > 100 µM | > 100 µM | > 100 µM | – | > 100 µM | > 100 µM | – | – | > 100 | – | – | > 100 | > 100 µM | > 100 | – |
| COc1cc(/C=C\c2ccc(Br)cc2)cc(OC)c1OC | 18.5 | > 100 µM | 1.21 | 10.6 µM | 15 µM | 26.8 µM | 0.109 µM | > 100 µM | – | – | – | – | – | – | – | – | – | 0.0192 µM | – | – |
| CCOC(=O)C1=C(Nc2ccc(Br)cc2)OC/C1=N\NC(=O)c1ccccc1O | > 71.1 | 8.63 µM | > 100 | 18.4 µM | > 100 µM | > 100 µM | > 100 µM | > 100 µM | – | – | – | – | – | – | – | – | – | – | – | – |
